In patent US20180363011A1, “MICROORGANISMS AND USE THEREOF FOR THE PRODUCTION OF DIACIDS” (FONDS DE DEVELOPPEMENT DES FILIERES DES OLEAGINEUX ET DES …, priority 2015, published 2018):

Legend:
[1] = test system: ALK5 (Alk5p, cytochrome P450 CYP52); test: In vitro enzymatic assay: conversion of radiolabeled fatty acids by microsomes of S. cerevisiae WAT11 expressing ALK5 (TLC); conditions: yeast microsomes, NADPH; for Degree of conversion (%): gene ALK5, substrate 100 μM, ND: not detectable
Protocol: (§1) In order to confirm their hypotheses according to which these enzymes catalyze fatty acids by oxygenation reaction, the inventors performed a screening using microsomes of S. cerevisiae WAT11 yeast transformed with 6 of the genes of the CYP52 family, cloned into Yarrowia lipolytica: ALK2, ALK3, ALK4, ALK5, ALK6 and ALK11.
(§2) The incubations were carried out on the model substrate constituted by lauric acid (C12.0), in the presence of NADPH.
(§3) The reaction mixtures were deposited on TLC plates, and then developed and analyzed.
(§4) In order to study the substrate specificity of these enzymes, the inventors incubated each microsomal preparation with free fatty acids of different size and at various levels of unsaturation (for example, myristic acid—C14:0, palmitic acid—C16:0, stearic acid—C18:0, oleic acid—C18:1 and linoleic acid—C18:2).
(§5) The expression of the proteins of the 6 members of the 6YP52 family cloned was carried out using a heterologous system specifically designed for the expression of cytochrome P450 enzymes, based on the pYeDP60 vector and the Saccharomyces cerevisiae WAT11 strain. The WAT11 strain was transformed with each of the pYeDP60 constructs using the lithium acetate LiAc method. The transformants were selected by plating out on YNB plates lacking uracil. The yeasts are left in culture and the expression of cytochrome P450 was induced as described in Pompon et al., 1996. For each transformant, the microsomes were prepared by manually breaking the cells using glass beads (0.45 mm in diameter) in 50 mM of a Tris-HCl buffer (pH 7.5) containing 1 mM EDTA and 600 mM of sorbitol. The homogenate was subjected to centrifugation (10 000 g-15 min) and the resulting supernatant was subjected to ultracentrifugation (100 000 g-1 h). The microsome pellet was resuspended in 50 mM Tris-HCl (pH 7.4), mM EDTA and 30% (v/v) of glycerol with a Potter-Elvehjem homogenizer. The volume of buffer used for resuspending the microsomes was determined by the approximate weight of the wet pellet of yeast obtained after growth (1 ml of buffer per 2 g of cell pellet). The total concentrations of protein in the microsomes were estimated using the Bradford test and homogenized at 15 mg/ml using the appropriate volume of resuspension buffer. The microsome preparation was stored at −20° C. All the experiments for the microsome preparations were carried out between 0 and 4° C.
(§6) The activity of the cytochrome P450 enzymes was evaluated in vitro using various radiolabeled fatty acids. The standard test (0.1 ml) contained […] sodium phosphate (pH 7.4), […] NADPH, a radiolabeled substrate (100 μM) and 0.15 mg of microsomal protein. The reactions were carried out in a waterbath at 27° C. with continuous shaking. The reaction is initiated by adding NADPH and stopped after 20 min by adding 20 μl of acetonitrile containing 0.2% of acetic acid.
The reaction mixtures were deposited directly on TLC plates covered with silica in order to separate the incubation products from the initial substrate. The plates were developed using an ether/petroleum ether/formic acid mixture (50:50:1, v/v/v). The plates were scanned using a radioactivity detector. The chromatograms resulting from the TLC make it possible to determine the degrees of conversion for each cytochrome P450/fatty acid combination, based on the radioactivity detected by the reader. The mobility of the products on the TLC plate is a good indication of the type of oxygenation reaction that was carried out on the substrate (i.e. hydroxylation, epoxidation, diacid formation).

[2] = test system: ALK3 (Alk3p, cytochrome P450 CYP52); test: In vitro enzymatic assay: conversion of radiolabeled fatty acids by microsomes of S. cerevisiae WAT11 expressing ALK3 (TLC, GC-MS); conditions: NADPH; for Products of conversion by Alk3p seen in TLC chromatograms: fresh microsomes, standardized total protein, duplicate; for Degree of conversion (%): gene ALK3, substrate 100 μM, ND: not detectable; for Reaction product of Alk3p identified by GC-MS (first product peak) / Reaction product of Alk3p identified by GC-MS (second peak, diacid): incubation with Alk3p microsomes, GC-MS of methylated/TMS derivatives
Protocol: as §1, §2, §3, §4
Preparations of fresh microsomes of yeast expressing Alk3p were carried out. The inventors standardized the total protein content and performed new incubations with lauric acid and palmitic acid and also the abovementioned three C18 fatty acids (stearic acid, oleic acid and linoleic acid). All the reactions were carried out in duplicate in the presence of NADPH for analysis by TLC and GC-MS.
as §5, §6
The reaction mixtures were deposited directly on TLC plates covered with silica in order to separate the incubation products from the initial substrate. The plates were developed using an ether/petroleum ether/formic acid mixture (50:50:1, v/v/v). The plates were scanned using a radioactivity detector.

[3] = test system: ALK11 (Alk11p, cytochrome P450 CYP52); test: In vitro enzymatic assay: conversion of radiolabeled fatty acids by microsomes of S. cerevisiae WAT11 expressing ALK11 (TLC); conditions: yeast microsomes, NADPH; for Degree of conversion (%): gene ALK11, substrate 100 μM, ND: not detectable
Protocol: as §1, §2, §3, §4
as §5, with “The microsome preparation was stored at −20° C. All the experiments for the microsome preparations were carried out between 0 and 4° C.” left out
(§7) The activity of the cytochrome P450 enzymes was evaluated in vitro using various radiolabeled fatty acids. […]
The reaction mixtures were deposited directly on TLC plates covered with silica in order to separate the incubation products from the initial substrate. […] The plates were scanned using a radioactivity detector. The chromatograms resulting from the TLC make it possible to determine the degrees of conversion for each cytochrome P450/fatty acid combination, based on the radioactivity detected by the reader. […]

[4] = test system: ALK2 (Alk2p, cytochrome P450 CYP52); test: In vitro enzymatic assay: conversion of radiolabeled fatty acids by microsomes of S. cerevisiae WAT11 expressing ALK2 (TLC); conditions: yeast microsomes, NADPH; for Degree of conversion (%): gene ALK2, substrate 100 μM, ND: not detectable
Protocol: as §1, §2, §3, §4, §5, §6
The reaction mixtures were deposited directly on TLC plates covered with silica in order to separate the incubation products from the initial substrate. The plates were developed using an ether/petroleum ether/formic acid mixture (50:50:1, v/v/v). The plates were scanned using a radioactivity detector. The chromatograms resulting from the TLC make it possible to determine the degrees of conversion for each cytochrome P450/fatty acid combination, based on the radioactivity detected by the reader. […]

[5] = test system: ALK4 (Alk4p, cytochrome P450 CYP52); test: In vitro enzymatic assay: conversion of radiolabeled fatty acids by microsomes of S. cerevisiae WAT11 expressing ALK4 (TLC); conditions: gene ALK4, substrate 100 μM, yeast microsomes, NADPH, ND: not detectable
Protocol: as §1, §2
The reaction mixtures were deposited on TLC plates, and then developed and analyzed. […]
The expression of the proteins of the 6 members of the 6YP52 family cloned was carried out using a heterologous system specifically designed for the expression of cytochrome P450 enzymes, based on the pYeDP60 vector and the Saccharomyces cerevisiae WAT11 strain. […] The volume of buffer used for resuspending the microsomes was determined by the approximate weight of the wet pellet of yeast obtained after growth (1 ml of buffer per 2 g of cell pellet). […]
as §7
The reaction mixtures were deposited directly on TLC plates covered with silica in order to separate the incubation products from the initial substrate. […] The plates were scanned using a radioactivity detector. […]

CCCCCCCCCCCC(=O)O [C12:0, lauric acid]
Degree of conversion (%) [1]: 24% | Conversion of the fatty acid by Alk5p, in words [1]: capable of metabolizing | Products of conversion by Alk3p seen in TLC chromatograms ([2]; TLC): two products | Degree of conversion (%) ([2]; yeast microsomes, TLC): 65% | Reaction product of Alk3p identified by GC-MS (first product peak) [2]: 12-hydroxylauric acid derivative | Conversion of the fatty acid by Alk3p, in words ([2]; yeast microsomes, TLC): capable of metabolizing | Degree of conversion (%) [3]: Traces | Conversion of the fatty acid by Alk11p, in words [3]: capable of metabolizing | Degree of conversion (%) [4]: 7.3% | Conversion of the fatty acid by Alk2p, in words [4]: capable of metabolizing

CCCCCCCCCCCCCC(=O)O [C14:0, myristic acid]
Degree of conversion (%) [1]: 27% | Degree of conversion (%) ([2]; yeast microsomes, TLC): 68% | Degree of conversion (%) [4]: 1.1%

CCCCCCCCCCCCCCCC(=O)O [C16:0, palmitic acid]
Degree of conversion (%) [1]: 12% | Degree of conversion (%) [4]: 0.5%

CCCCCCCCCCCCCCCCCC(=O)O [C18:0, stearic acid]
Degree of conversion (%) [1]: 2% | Products of conversion by Alk3p seen in TLC chromatograms ([2]; TLC): only an w-oxidation product | Degree of conversion (%) ([2]; yeast microsomes, TLC): 3% | Reaction product of Alk3p identified by GC-MS (first product peak) [2]: 18-hydroxystearic acid derivative | Conversion of the fatty acid by Alk2p, in words [4]: No significant conversion

CCCCCCCC/C=C\CCCCCCCC(=O)O [C18:1, oleic acid]
Degree of conversion (%) [1]: 13% | Products of conversion by Alk3p seen in TLC chromatograms ([2]; TLC): two products | Degree of conversion (%) ([2]; yeast microsomes, TLC): 27% | Reaction product of Alk3p identified by GC-MS (first product peak) [2]: 18-hydroxyoleic acid derivative | Reaction product of Alk3p identified by GC-MS (second peak, diacid) [2]: 1,18-octadeca-9-enedioic acid | Degree of conversion (%) [3]: 2%

CCCCC/C=C\C/C=C\CCCCCCCC(=O)O [C18:2, linoleic acid]
Degree of conversion (%) [1]: 11% | Products of conversion by Alk3p seen in TLC chromatograms ([2]; TLC): two products | Degree of conversion (%) ([2]; yeast microsomes, TLC): 35% | Reaction product of Alk3p identified by GC-MS (first product peak) [2]: 18-hydroxylinoleic acid derivative | Reaction product of Alk3p identified by GC-MS (second peak, diacid) [2]: 1,18-octadeca-9,12-dienedioic derivative | Degree of conversion (%) [3]: 4% | Degree of conversion (%) [5]: 3%
